Source: ChEMBL document CHEMBL1201862, “PubChem BioAssay data set” (2004)
The source made the active and inactive calls.

Key:
[1] = test system: Vero; assay: inhibition of WNV-induced cytopathic effect – cell-based, CPE readout (AID 1621); assay type: functional; details: Chlorocebus sabaeus
[2] = anti-trypanosomal activity in BESM host cells – imaging, CA-I/72 strain, bovine embryo skeletal muscle, dry powder, dose response (AID 651885); assay type: functional, cell-based
[3] = antileishmanial activity on axenic amastigotes – plate reader, cherry pick, dose response (AID 651891); assay type: functional, cell-based; details: Leishmania donovani
[4] = L6 myocyte viability loss – cell-based, plate reader, cherry-pick, cytotoxicity control, dose response (AID 651896); assay type: functional
[5] = African trypanosome bloodstream form growth inhibition – STIB900 strain, plate reader, cherry pick, dose response (AID 651893); assay type: functional, cell-based, Trypanosoma brucei rhodesiense; details: Trypanosoma brucei
[6] = Trypanosoma cruzi replication inhibitors in host cells – cell-based, plate reader, dry powder samples, dose response (AID 651845); assay type: functional
[7] = T. cruzi growth inhibition in host cells, dose response, cell-based, plate reader, dry powder, set 2 (AID 652275); assay type: functional
[8] = Inhibition of T. cruzi Tulahuen strain amastigotes in L-6 muscle cells Measured in Cell-Based and Microorganism Combination System Using Plate Reader - 2138-03_Inhibitor_Dose_CherryPick_Activity.; assay type: functional; details: Rattus norvegicus, L6
[9] = mouse fibroblast viability loss – cell-based, cherry-pick samples, set 2, cytotoxicity control for T. cruzi growth inhibitor project, dose response (AID 651817); assay type: functional; details: NIH3T3
[10] = intracellular Trypanosoma cruzi inhibitors in host cells – cell-based, plate reader, cherry-pick samples, set 3, dose response (AID 651818); assay type: functional;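 further: compounds incubated with infected cells for about four days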
[11] = Inhibition of Plasmodium falciparum NF54 Measured in Cell-Based System Using Plate Reader - 2138-11_Inhibitor_Dose_CherryPick_Activity.; assay type: functional
[12] = BioA aminotransferase inhibition, coupled fluorescent readout – biochemical, coupled fluorescence displacement, 20-point, dry powder, dose response (AID 743357); assay type: functional
[13] = non-specific 3'UTR reporter inhibition in Clone20-Shn3RL – cell-based, Renilla luciferase, cherry-picked, counter-screen for Shn3 inhibitor project, dose response (AID 624133); assay type: functional
[14] = reduction of Shn3 3'UTR-driven luciferase in osteoblasts – cell-based, Clone20 osteoblasts, firefly luciferase, cherry-picked, dose response (AID 624132); assay type: functional;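 further: firefly luciferase luminescence from reporter carrying the Shn3 3'UTR in osteoblasts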
[15] = NIH-3T3 fibroblast cytotoxicity, dose response, cytotoxicity control, cell-based, fluorescence, Alamar Blue, secondary assay (AID 2327); assay type: functional;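 further: NIH-3T3 mouse fibroblasts cultured with fluconazole at 8 µg/mL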
[16] = loss of viability in HepG2 cells – cell-based, CellTiter-Glo, cherry-picked, cytotoxicity control for Shn3 inhibitor project, dose response (AID 624134); assay type: functional
[17] = test system: INS1; assay: INS-1E survival protection against cytokine death – cell-based, luminescence, retest, dose response (AID 449756); assay type: functional; details: Rattus norvegicus;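 further: cell death triggered by IL-1 beta plus TNF-alpha plus IFN-gamma mixture; protective hits raise ATP signal compared with cytokine alone wells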
[18] = target: Galanin receptor type 2 (Homo sapiens, UniProt O43603); assay: Dose Response cell-based high-throughput screening assay to identify antagonists of galanin receptor 2 (GALR2). [Related pubchem assays: 828, 866 ]; assay type: functional
[19] = HEK-293T cell viability reduction – luminescence, B-cell screen hits, cytotoxicity control for BCR NF-kB inhibitor project, dose response (AID 489021); assay type: functional, cell-based;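 further: HEK-293T cells carrying an NF-kB luciferase reporter; cells exposed to compound for about 14 hours before viability readout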
[20] = target: COUP transcription factor 2 (Homo sapiens, UniProt P24468); assay: Luminescence-based cell-based high throughput dose response assay to identify inhibitors of COUP-TFII (NR2F2).; assay type: functional;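 further: HEK293 cells transiently cotransfected with COUP-TFII expression vector and reporter; luciferase reporter luminescence driven by COUP-TFII from the pX2-168 reporter plasmid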
[21] = fluconazole-exposed Candida albicans growth modulators – fluorescence, retest, confirmation (AID 2467); assay type: functional, cell-based
[22] = target: Diphosphomevalonate decarboxylase (Streptococcus pneumoniae serotype 2 (strain D39 / NCTC 7466), UniProt Q9FD53); assay: diphosphomevalonate decarboxylase inhibitor confirmation – biochemical, cuvette format, coupled NADH fluorescence (AID 1028); assay type: functional
[23] = target: Estrogen receptor beta (Homo sapiens, UniProt Q92731);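 further: recombinant ER-beta bound to coactivator SRC1 peptide in presence of estradiol agonist; inhibitors block coactivator peptide binding and lower the FRET signal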
[24] = viability loss in human Jurkat cells – cell-based, luminescence, cytotoxicity control for P. falciparum gametocyte viability project, dose response (AID 1117277); assay type: functional;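 further: potency reflects loss of cellular ATP meaning fewer viable cells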
[25] = viability inhibitors of stage V gametocytes – luminescence, dose response (AID 1117278); assay type: functional, cell-based;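 further: gametocytes exposed to compound for 24 hours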
[26] = target: E3 ubiquitin-protein ligase Mdm2 (Homo sapiens, UniProt Q00987); assay: MDM2-luc reporter signal enhancers, multi-concentration potency testing, MDM2 ubiquitin-protein ligase inhibitor program, whole-cell format, luminescence detection, 384-well microplate (AID 1394); assay type: functional;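 further: MDM2 E3 inhibitors raise luminescence so EC50 is for signal enhancement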
[27] = target: T1, Heat shock factor protein 1 (Mus musculus, UniProt P38532); assay: decrease of HSF1-responsive luciferase luminescence – cell-based, NIH3T3, dose retest, confirmation (AID 2382); assay type: functional;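 further: NIH3T3 fibroblasts with HSF1-driven luciferase reporter stressed by proteasome inhibitor MG132; luminescence from HSF1-driven luciferase expression after 8 hours of MG132 stress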
T1 sequence (P38532 whole entry): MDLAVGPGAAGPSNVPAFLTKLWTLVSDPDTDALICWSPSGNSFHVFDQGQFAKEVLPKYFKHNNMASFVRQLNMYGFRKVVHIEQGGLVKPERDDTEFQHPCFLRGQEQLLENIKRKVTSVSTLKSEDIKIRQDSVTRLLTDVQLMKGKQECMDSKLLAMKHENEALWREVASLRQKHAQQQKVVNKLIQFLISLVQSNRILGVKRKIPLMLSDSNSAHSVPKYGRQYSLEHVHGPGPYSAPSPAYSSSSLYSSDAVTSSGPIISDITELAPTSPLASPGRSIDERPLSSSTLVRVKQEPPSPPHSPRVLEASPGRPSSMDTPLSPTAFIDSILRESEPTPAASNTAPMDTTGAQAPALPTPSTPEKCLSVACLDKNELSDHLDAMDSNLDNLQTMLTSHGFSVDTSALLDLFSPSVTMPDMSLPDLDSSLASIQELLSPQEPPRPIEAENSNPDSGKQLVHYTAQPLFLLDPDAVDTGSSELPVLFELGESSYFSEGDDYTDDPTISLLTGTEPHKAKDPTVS

[28] = target: RNA-editing ligase 1, mitochondrial (Trypanosoma brucei brucei, UniProt P86926); assay: inhibition of trypanosome RNA editing ligase – biochemical, fluorescence, Trypanosoma brucei, dose response (AID 1117295); assay type: functional
[29] = target: NAD-dependent protein deacylase sirtuin-5, mitochondrial (Homo sapiens, UniProt Q9NXA8); assay: blockers of sirtuin-5 peptide desuccinylation – biochemical, fluorescence imaging, cherry-pick, set 6, dose response (AID 720597)
[30] = target: Paired box protein Pax-8 (Homo sapiens, UniProt Q06710); assay: PAX8 transcriptional activity inhibition in RMG-I – RMG-I cells, luciferase, cherry-pick, dose response (AID 687027); assay type: functional, cell-based;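 further: luciferase reporter driven by Pax8 target thyroperoxidase promoter measured by SteadyGlo luminescence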
Chain of Paired box protein Pax-8 (Q06710 whole entry): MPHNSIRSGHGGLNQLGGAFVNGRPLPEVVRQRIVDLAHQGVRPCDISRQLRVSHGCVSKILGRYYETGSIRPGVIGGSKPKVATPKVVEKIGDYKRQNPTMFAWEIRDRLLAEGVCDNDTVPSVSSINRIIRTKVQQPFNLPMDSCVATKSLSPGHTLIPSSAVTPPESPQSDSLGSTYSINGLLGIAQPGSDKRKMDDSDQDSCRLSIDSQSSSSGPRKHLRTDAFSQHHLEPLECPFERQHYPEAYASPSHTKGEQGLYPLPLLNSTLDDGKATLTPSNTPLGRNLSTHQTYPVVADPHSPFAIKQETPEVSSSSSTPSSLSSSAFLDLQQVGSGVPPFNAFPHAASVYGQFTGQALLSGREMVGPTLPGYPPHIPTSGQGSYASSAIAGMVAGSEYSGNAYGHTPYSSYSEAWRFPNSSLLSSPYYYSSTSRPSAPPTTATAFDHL

Chain of E3 ubiquitin-protein ligase Mdm2 (Q00987 whole entry): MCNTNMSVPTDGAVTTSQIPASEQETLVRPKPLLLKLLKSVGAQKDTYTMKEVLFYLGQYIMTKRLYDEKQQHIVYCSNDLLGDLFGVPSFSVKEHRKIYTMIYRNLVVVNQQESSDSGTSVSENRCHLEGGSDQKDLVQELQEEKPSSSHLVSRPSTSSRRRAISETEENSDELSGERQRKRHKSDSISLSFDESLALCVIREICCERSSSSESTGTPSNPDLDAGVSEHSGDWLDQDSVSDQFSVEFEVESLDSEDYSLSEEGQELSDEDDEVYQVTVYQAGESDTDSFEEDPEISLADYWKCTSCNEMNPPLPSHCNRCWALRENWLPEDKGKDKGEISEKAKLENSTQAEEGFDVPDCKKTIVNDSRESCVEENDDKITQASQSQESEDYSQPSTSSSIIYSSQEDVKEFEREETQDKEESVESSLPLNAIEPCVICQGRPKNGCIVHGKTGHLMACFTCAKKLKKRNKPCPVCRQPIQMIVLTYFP
Chain of COUP transcription factor 2 (P24468 whole entry): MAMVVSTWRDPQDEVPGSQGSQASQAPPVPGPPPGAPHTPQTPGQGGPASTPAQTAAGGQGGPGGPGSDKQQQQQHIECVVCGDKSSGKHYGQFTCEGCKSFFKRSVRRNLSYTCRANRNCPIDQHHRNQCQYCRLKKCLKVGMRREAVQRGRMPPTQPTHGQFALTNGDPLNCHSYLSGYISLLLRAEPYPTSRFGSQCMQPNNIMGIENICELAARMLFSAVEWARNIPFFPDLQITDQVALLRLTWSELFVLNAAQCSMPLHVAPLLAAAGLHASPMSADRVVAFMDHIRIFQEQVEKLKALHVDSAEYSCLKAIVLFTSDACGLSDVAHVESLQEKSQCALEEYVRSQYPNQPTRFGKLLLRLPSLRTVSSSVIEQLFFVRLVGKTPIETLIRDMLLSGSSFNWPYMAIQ
Chain of NAD-dependent protein deacylase sirtuin-5, mitochondrial (Q9NXA8 whole entry): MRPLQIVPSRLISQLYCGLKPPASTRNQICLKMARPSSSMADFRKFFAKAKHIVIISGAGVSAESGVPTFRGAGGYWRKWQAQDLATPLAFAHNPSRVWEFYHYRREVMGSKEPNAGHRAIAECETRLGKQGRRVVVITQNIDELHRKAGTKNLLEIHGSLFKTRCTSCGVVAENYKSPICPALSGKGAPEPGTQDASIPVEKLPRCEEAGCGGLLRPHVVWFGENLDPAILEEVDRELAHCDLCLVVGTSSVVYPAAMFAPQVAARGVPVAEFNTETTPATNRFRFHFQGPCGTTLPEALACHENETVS
Chain of Galanin receptor type 2 (O43603 whole entry): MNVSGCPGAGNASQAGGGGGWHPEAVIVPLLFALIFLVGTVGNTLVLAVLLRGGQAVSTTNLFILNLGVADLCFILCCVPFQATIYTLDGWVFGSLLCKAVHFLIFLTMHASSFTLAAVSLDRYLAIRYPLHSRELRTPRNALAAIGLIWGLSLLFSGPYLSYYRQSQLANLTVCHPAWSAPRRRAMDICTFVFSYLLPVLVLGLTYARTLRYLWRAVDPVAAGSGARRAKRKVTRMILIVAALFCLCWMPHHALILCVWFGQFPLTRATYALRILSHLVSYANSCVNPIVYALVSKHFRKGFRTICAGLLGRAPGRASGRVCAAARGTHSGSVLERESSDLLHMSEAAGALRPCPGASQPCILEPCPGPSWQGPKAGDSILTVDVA
Chain of RNA-editing ligase 1, mitochondrial (P86926 whole entry): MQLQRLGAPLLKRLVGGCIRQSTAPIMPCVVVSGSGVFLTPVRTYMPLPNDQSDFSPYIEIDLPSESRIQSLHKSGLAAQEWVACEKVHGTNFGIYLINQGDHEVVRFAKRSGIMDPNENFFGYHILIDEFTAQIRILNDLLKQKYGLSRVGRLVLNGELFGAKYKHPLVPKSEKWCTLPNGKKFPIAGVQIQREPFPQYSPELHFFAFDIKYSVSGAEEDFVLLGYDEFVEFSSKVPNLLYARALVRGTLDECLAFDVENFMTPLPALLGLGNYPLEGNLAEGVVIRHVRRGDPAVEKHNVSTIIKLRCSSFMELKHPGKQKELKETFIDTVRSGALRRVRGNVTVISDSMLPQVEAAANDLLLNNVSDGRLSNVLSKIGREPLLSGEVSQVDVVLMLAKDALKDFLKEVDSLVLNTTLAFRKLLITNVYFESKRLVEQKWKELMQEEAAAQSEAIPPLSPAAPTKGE
Chain of Diphosphomevalonate decarboxylase (Q9FD53 whole entry): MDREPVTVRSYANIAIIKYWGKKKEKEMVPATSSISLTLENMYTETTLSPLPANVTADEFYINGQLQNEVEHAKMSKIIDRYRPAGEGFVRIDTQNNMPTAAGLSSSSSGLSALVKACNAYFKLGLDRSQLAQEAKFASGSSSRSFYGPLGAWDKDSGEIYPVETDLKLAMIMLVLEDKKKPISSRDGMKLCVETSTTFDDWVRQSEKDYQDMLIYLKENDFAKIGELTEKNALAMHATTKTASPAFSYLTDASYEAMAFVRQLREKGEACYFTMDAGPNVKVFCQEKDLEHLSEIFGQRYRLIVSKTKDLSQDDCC
Chain of Estrogen receptor beta (Q92731 whole entry): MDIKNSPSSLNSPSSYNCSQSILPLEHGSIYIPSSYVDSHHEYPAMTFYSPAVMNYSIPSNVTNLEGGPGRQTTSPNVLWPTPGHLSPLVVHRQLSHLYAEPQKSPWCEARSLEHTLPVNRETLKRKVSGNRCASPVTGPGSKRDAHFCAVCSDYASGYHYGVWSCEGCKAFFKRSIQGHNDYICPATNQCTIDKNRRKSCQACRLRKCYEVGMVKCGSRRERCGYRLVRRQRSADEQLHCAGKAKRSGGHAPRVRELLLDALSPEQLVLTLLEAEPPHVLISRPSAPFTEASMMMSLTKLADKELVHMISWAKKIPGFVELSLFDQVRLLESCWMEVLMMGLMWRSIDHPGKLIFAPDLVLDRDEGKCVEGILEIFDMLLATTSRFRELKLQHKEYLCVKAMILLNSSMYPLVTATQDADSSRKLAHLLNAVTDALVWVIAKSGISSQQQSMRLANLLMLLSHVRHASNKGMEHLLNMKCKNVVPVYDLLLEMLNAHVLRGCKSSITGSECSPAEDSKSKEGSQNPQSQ

Cc1ccc(-c2cc(C(=O)NCCCN3CCCC3)c3ccccc3n2)cc1C
IC50 [1]: 21.8 µM (active)

C[C@H]1CN([C@@H](C)CO)C(=O)c2cccc(NC(=O)c3ccncc3)c2O[C@@H]1CN(C)Cc1ccc(C(F)(F)F)cc1
IC50 [2]: 0.00601 µM (active) | IC50 [3]: 16.3 µM (inactive) | IC50 [4]: 45.5 µM (inactive) | IC50 [5]: 3.49 µM (inactive) | AC50 [6]: 0.0127 µM (active) | AC50 [7]: 0.0127 µM (active) | IC50 [8]: 2.95 µM (inactive) | AC50 [9]: 39 µM (inactive) | AC50 [10]: 0.304 µM (active) | IC50 [11]: 2.95 µM (inactive)

CN1c2ccc(-c3cccc(F)c3)cc2[C@H]2[C@H](CCN2C(=O)CCCCCCC(=O)O)[C@H]1CO
AC50 [12]: 16.7 µM (active)

Cc1ccc(S(=O)(=O)CC2CSc3nc4ccccc4n32)cc1 (stereo not given)
AC50 [13]: 24.4 µM (active) | AC50 [14]: 0.347 µM (active) | EC50 [15]: > 160 µM (inactive) | AC50 [16]: 0.592 µM (active) | AC50 [17]: 3.55 µM (active) | IC50 [18]: > 42 µM (not active) | IC50 [19]: > 80 µM (inactive) | IC50 [20]: 4.21 µM (active) | EC50 [21]: 1.15 µM (active)

O=C(c1cccc(-n2sc3ccccc3c2=O)c1)N1CCCC1
IC50 [22]: 16.5 µM (active)

CCCCCCN/C=C1\C(=O)CC(C)(C)C(C(=O)OC)C1=O (stereo not given)
IC50 [23]: > 50 µM (not active)

Cc1cc(S(=O)(=O)N(Cc2ccccc2F)C2CC2)ccc1-n1cnnn1
IC50 [24]: > 83.2 µM (inactive) | IC50 [25]: > 109 µM (inactive)

CCOC(=O)/C=C/C(=O)Nc1ccccc1-c1ccccc1NC(=O)/C=C/C(=O)OCC
EC50 [26]: 4.34 µM (active) | EC50 [27]: 14.4 µM (active)

Cc1c(P(=S)(c2ccccc2)c2ccccc2)n2ccccc2[n+]1C/C=C/c1ccccc1
IC50 [28]: > 96.6 µM (inactive)

Cc1ccc(S(=O)(=O)N(C)C[C@@H]2OCCCC[C@H](C)Oc3ccc(NS(=O)(=O)c4ccc(Cl)cc4)cc3C(=O)N([C@H](C)CO)C[C@H]2C)cc1
AC50 [29]: > 30 µM (inactive) | AC50 [30]: 7.27 µM (active)
